{"source": "ChEMBL document CHEMBL4651402", "about": "“Screening of ~5500 FDA-approved drugs and clinical candidates for anti-SARS-CoV-2 activity” (2021)", "tested_on": "SARS-CoV-2", "test": "microbe, parasite or virus in culture", "conditions": "Severe acute respiratory syndrome coronavirus 2, Vero C1008, 48 h", "data": [{"smiles": "CC(C)OC(=O)[C@@H](C)NP(=O)(OC[C@H]1O[C@@H](n2ccc(=O)[nH]c2=O)[C@](C)(O)[C@@H]1O)Oc1ccccc1", "note": "(stereo partly specified)", "values": [{"measurement": "IC50", "result": "> 20", "unit": "µM"}, {"measurement": "IC50", "setting": "read-out: pIC50 (converted)", "result": "> 20", "unit": "µM"}]}, {"smiles": "Cn1c(=O)c2c(ncn2CCO)n(C)c1=O", "note": "[ETOFYLLINE]", "values": [{"measurement": "IC50", "result": "> 20", "unit": "µM"}, {"measurement": "IC50", "setting": "read-out: pIC50 (converted)", "result": "> 20", "unit": "µM"}]}, {"smiles": "C[C@H]1CN(C2COC2)CCN1c1ccc(Nc2cc(-c3ccnc(N4CCn5c(cc6c5CC(C)(C)C6)C4=O)c3CO)cn(C)c2=O)nc1", "note": "[FENEBRUTINIB]", "values": [{"measurement": "IC50", "result": "> 20", "unit": "µM"}, {"measurement": "IC50", "setting": "read-out: pIC50 (converted)", "result": "> 20", "unit": "µM"}]}, {"smiles": "Cc1cc(C(C)(C)C)c(O)c(C)c1CC1=NCCN1", "note": "[OXYMETAZOLINE]", "values": [{"measurement": "IC50", "result": "> 20", "unit": "µM"}, {"measurement": "IC50", "setting": "read-out: pIC50 (converted)", "result": "> 20", "unit": "µM"}]}, {"smiles": "O=C(OCC(O)CO)c1ccccc1Nc1ccnc2c(C(F)(F)F)cccc12", "note": "(stereo unspecified) [FLOCTAFENINE]", "values": [{"measurement": "IC50", "result": "> 20", "unit": "µM"}, {"measurement": "IC50", "setting": "read-out: pIC50 (converted)", "result": "> 20", "unit": "µM"}]}, {"smiles": "CC(C)C(C)/C=C/C(C)C1CCC2C3=CC=C4CC(O)CCC4(C)[C@H]3CCC21C", "note": "(stereo partly specified)", "values": [{"measurement": "IC50", "result": "> 20", "unit": "µM"}, {"measurement": "IC50", "setting": "read-out: pIC50 (converted)", "result": "> 20", "unit": "µM"}]}, {"smiles": "OC(c1ccccc1)(c1ccccc1)[C@@H]1C[C@H]1c1ccncc1", "values": [{"measurement": "IC50", "result": "> 20", "unit": "µM"}, {"measurement": "IC50", "setting": "read-out: pIC50 (converted)", "result": "> 20", "unit": "µM"}]}, {"smiles": "CN(C)CC#CC=C1c2ccccc2C=Cc2ccccc21", "note": "[INTRIPTYLINE]", "values": [{"measurement": "IC50", "result": "> 20", "unit": "µM"}, {"measurement": "IC50", "setting": "read-out: pIC50 (converted)", "result": "> 20", "unit": "µM"}]}, {"smiles": "CC(CN1CCN(CCOCCO)CC1)CN1c2ccccc2Sc2ccccc21", "note": "(stereo unspecified) [DIXYRAZINE]", "values": [{"measurement": "IC50", "result": "> 20", "unit": "µM"}, {"measurement": "IC50", "setting": "read-out: pIC50 (converted)", "result": "> 20", "unit": "µM"}]}, {"smiles": "Fc1ccc(CN2CCC(Nc3ccc(C(F)(F)F)nn3)CC2)cc1F", "note": "[JNJ-37822681]", "values": [{"measurement": "IC50", "result": "> 20", "unit": "µM"}, {"measurement": "IC50", "setting": "read-out: pIC50 (converted)", "result": "> 20", "unit": "µM"}]}, {"smiles": "CN(C)CCC(c1ccc(Br)cc1)c1ccccn1", "note": "(stereo unspecified) [BROMPHENIRAMINE]", "values": [{"measurement": "IC50", "result": "> 20", "unit": "µM"}, {"measurement": "IC50", "setting": "read-out: pIC50 (converted)", "result": "> 20", "unit": "µM"}]}, {"smiles": "CCOC(=O)C1(c2ccccc2)CCN(CCN2CCOCC2)CC1", "note": "[MORPHERIDINE]", "values": [{"measurement": "IC50", "result": "> 20", "unit": "µM"}, {"measurement": "IC50", "setting": "read-out: pIC50 (converted)", "result": "> 20", "unit": "µM"}]}, {"smiles": "CC(C)c1cnn2c(NCc3ccccc3)cc(NC[C@H]3CCNC[C@@H]3O)nc12", "note": "[CT-7001]", "values": [{"measurement": "IC50", "result": "> 20", "unit": "µM"}, {"measurement": "IC50", "setting": "read-out: pIC50 (converted)", "result": "> 20", "unit": "µM"}]}, {"smiles": "CCC(C)C1OC2(CCC1C)CC1CC(C/C=C(/C)C(OC3CC(OC)C(OC4CC(OC)C(O)C(C)O4)C(C)O3)C(C)/C=C\\C=C3\\COC4C(O)C(C)=CC(C(=O)O1)C34O)O2", "note": "(stereo unspecified)", "values": [{"measurement": "IC50", "result": "> 20", "unit": "µM"}, {"measurement": "IC50", "setting": "read-out: pIC50 (converted)", "result": "> 20", "unit": "µM"}]}, {"smiles": "CC(C)NCC(O)COc1ccccc1-n1cccc1", "note": "(stereo unspecified) [ISAMOLTAN]", "values": [{"measurement": "IC50", "result": "> 20", "unit": "µM"}, {"measurement": "IC50", "setting": "read-out: pIC50 (converted)", "result": "> 20", "unit": "µM"}]}, {"smiles": "CCCCNC(=O)OCC(C)(CCC)COC(N)=O", "note": "(stereo unspecified) [TYBAMATE]", "values": [{"measurement": "IC50", "result": "> 20", "unit": "µM"}, {"measurement": "IC50", "setting": "read-out: pIC50 (converted)", "result": "> 20", "unit": "µM"}]}, {"smiles": "Cc1cc(C(=O)NCCc2ccc(S(=O)(=O)NC(=O)NN3CCCCCC3)cc2)no1", "note": "[GLISOXEPIDE]", "values": [{"measurement": "IC50", "result": "> 20", "unit": "µM"}, {"measurement": "IC50", "setting": "read-out: pIC50 (converted)", "result": "> 20", "unit": "µM"}]}, {"smiles": "COc1cccc2c1C(=O)c1c(O)c3c(c(O)c1C2=O)CC(O)(/C(C)=N/NC(=O)c1ccccc1)CC3OC1CC(N)C(O)C(C)O1", "note": "(stereo unspecified)", "values": [{"measurement": "IC50", "result": "> 20", "unit": "µM"}, {"measurement": "IC50", "setting": "read-out: pIC50 (converted)", "result": "> 20", "unit": "µM"}]}, {"smiles": "CC12CCC(=O)C(O)=C1CCC1C2CCC2(C)C1CC[C@]2(C)O", "note": "(stereo partly specified)", "values": [{"measurement": "IC50", "result": "> 20", "unit": "µM"}, {"measurement": "IC50", "setting": "read-out: pIC50 (converted)", "result": "> 20", "unit": "µM"}]}, {"smiles": "CCCCC/C=C\\C/C=C\\CCCCCCCC(=O)O", "note": "[LINOLEIC ACID]", "values": [{"measurement": "IC50", "result": "> 20", "unit": "µM"}, {"measurement": "IC50", "setting": "read-out: pIC50 (converted)", "result": "> 20", "unit": "µM"}]}, {"smiles": "CCN1CCN(c2ccc(Nc3cc(N(C)C(=O)Nc4c(Cl)c(OC)cc(OC)c4Cl)ncn3)cc2)CC1", "note": "[INFIGRATINIB]", "values": [{"measurement": "IC50", "result": "> 20", "unit": "µM"}, {"measurement": "IC50", "setting": "read-out: pIC50 (converted)", "result": "> 20", "unit": "µM"}]}, {"smiles": "C/C=C1/[C@H](O[C@@H]2O[C@H](CO)[C@@H](O)[C@H](O)[C@H]2O)OC=C(C(=O)OC)[C@H]1CC(=O)OCCc1ccc(O)c(O)c1", "note": "[OLEUROPEIN]", "values": [{"measurement": "IC50", "result": "> 20", "unit": "µM"}, {"measurement": "IC50", "setting": "read-out: pIC50 (converted)", "result": "> 20", "unit": "µM"}]}, {"smiles": "COC(=O)N[C@H](C(=O)N1CCC[C@H]1c1ncc(-c2ccc(-c3ccc(-c4cnc([C@@H]5CC6(CN5C(=O)[C@@H](NC(=O)OC)C(C)C)OCCO6)[nH]4)cc3)cc2)[nH]1)C(C)C", "values": [{"measurement": "IC50", "result": "> 20", "unit": "µM"}, {"measurement": "IC50", "setting": "read-out: pIC50 (converted)", "result": "> 20", "unit": "µM"}]}, {"smiles": "N=C(N)N/N=C/c1c(Cl)cccc1Cl", "note": "[GUANABENZ]", "values": [{"measurement": "IC50", "result": "> 20", "unit": "µM"}, {"measurement": "IC50", "setting": "read-out: pIC50 (converted)", "result": "> 20", "unit": "µM"}]}, {"smiles": "CC(C)=CCC/C(C)=C/COc1ccc2ccc(=O)oc2c1", "values": [{"measurement": "IC50", "result": "> 20", "unit": "µM"}, {"measurement": "IC50", "setting": "read-out: pIC50 (converted)", "result": "> 20", "unit": "µM"}]}, {"smiles": "Cn1nnc2c(C(N)=O)ncn2c1=O", "note": "[TEMOZOLOMIDE]", "values": [{"measurement": "IC50", "result": "> 20", "unit": "µM"}, {"measurement": "IC50", "setting": "read-out: pIC50 (converted)", "result": "> 20", "unit": "µM"}]}, {"smiles": "COC(=O)[C@H](Cc1ccccc1)NC(=O)[C@@H](N)CC(=O)O", "values": [{"measurement": "IC50", "result": "> 20", "unit": "µM"}, {"measurement": "IC50", "setting": "read-out: pIC50 (converted)", "result": "> 20", "unit": "µM"}]}, {"smiles": "CCCCC(=O)O[C@]1(C(=O)CO)C(C)CC2C3CCC4=CC(=O)C=CC4(C)[C@@]3(F)C(O)CC21C", "note": "(stereo partly specified)", "values": [{"measurement": "IC50", "result": "> 20", "unit": "µM"}, {"measurement": "IC50", "setting": "read-out: pIC50 (converted)", "result": "> 20", "unit": "µM"}]}]}
